Test results published in patent publication US20210116454A1, “METHODS FOR TREATING A HEMATOLOGICAL CANCER AND THE USE OF COMPANION BIOMARKERS FOR 2-(2,6-DIOXOPIPERIDIN-3-YL)-4-((2-FLUORO-4-((3-MORPHOLINOAZETIDIN-1-YL)METHYL)BENZYL)AMINO)ISOINDOLINE-1,3-DIONE” (CELGENE CORPORATION, priority 2019, published 2021).

Key:
BT system = test: BioMAP BT system (B cells and PBMCs); assay type: cell-based, human; details: 0.01, 0.1, 1, and 10 μM
Method: The activity of Compound 1 was profiled in a panel of human primary cell-based assays, modeling complex tissue and disease biology of organs (vasculature, immune system, skin, lung) and general tissue biology using the BioMAP System (DiscoveRx, Fremont, Calif.).
The BioMAP System consists of twelve primary human monoculture or co-culture systems in stimulated and non-stimulated control conditions (FIG. 4, panel A). When tested at 0.01, 0.1, 1, and 10 μM, Compound 1 mediated changes in key biomarker activities. Specifically, the profiles for Compound 1 reflected selective anti-inflammatory and immunomodulatory impact on monocyte (LPS) and T cell dependent B cell activation responses (BT). Treatment with Compound 1 led to a decrease in interleukin 8 (IL-8), interleukin 1a (IL-1a), secreted prostaglandin E2 (sPGE2), and secreted tumor necrosis factor alpha (sTNFα) in the LPS system, which consisted of peripheral blood mononuclear cells (PBMCs) and endothelial cells. Furthermore, secreted IgG (sIgG), secreted interleukin 17A (sIL-17A), secreted interleukin 17F (sIL-17F), and sTNFα decreased, whereas secreted interleukin 2 (sIL-2) and secreted interleukin 6 (sIL-6) increased, in the BT system, which was comprised of B cells and PBMCs.

[1] = system: KARPAS-422, RIVA, HT, and SU-DHL-4 cell lines; test: Dose response in cells expressing degradation-resistant mutants of Ikaros, Aiolos, ZFP91; assay type: cell-based; details: KARPAS-422 and SU-DHL-4
Text: To test whether Ikaros and Aiolos were redundant in promoting the survival and proliferation of DLBCL lines, degradation-resistant mutants of Ikaros (IKZF1-G151A), Aiolos (IKZF3-G152A), and ZFP91 (ZFP91-G405A), along with NanoLuc luciferase (Nluc) as a control, were ectopically and stably expressed in four DLBCL cell lines: KARPAS-422, RIVA, HT, and SU-DHL-4. Dose response curves with Compound 1 indicate that expression of degradation-resistant mutants of Ikaros or Aiolos provided protection from Compound 1 in all four cell lines (FIG. 11). Additionally, the ectopic expression of the degradation-resistant mutants, as well as their protection against Compound 1-induced degradation, was confirmed by immunoblot analysis. […] Beta-actin levels were used as a control. […] However, there were varying degrees of protection observed in the four cell lines.

[2] = system: CRBN^WT and CRBN^−/− DLBCL cells; test: Proliferation of CRBN^WT and CRBN^−/− DLBCL cells (six lines); assay type: cell-based
Text: The activated B-cell (ABC) and MYC/BCL2 double expressor cell lines SU-DHL-2 and RIVA, the germinal center B-cell (GCB) and MYC/BCL2 double hit cell lines (and expressing BCL6) Karpas-422, SU-DHL-10, WSU-DLCL2, and the primary mediastinal B-cell lymphoma (PMBL) cell line Farage were infected with a CAS9 expressing lentivirus construct to generate the control CAS9 expressing cells. The Cas9 cells had wild type cereblon expression (CRBN^WT).
To generate the cereblon knock out cells (CRBN^−/−), the individual control CAS9 cells were infected with a construct expressing a subgenomic single guide RNA (sgRNA). Western blot analysis confirmed the absence of cereblon protein in the CRBN^−/− cells, relative to the levels of the housekeeping protein β-tubulin. The CRBN^WT and CRBN^−/− cells were treated with increasing concentrations of Compound 1 for five days.

[3] = system: KARPAS-422-Cas9 and SU-DHL-4-Cas9 knock-out cells; test: Flow cytometry-based cellular competition assay in substrate knock-out cells; assay type: cell-based; details: 0.1, 1, 10 nM
Text: Compound 1 induces autonomous cell killing activity in DLBCL cells in a cereblon-dependent manner. To investigate the consequence of loss of a single cereblon substrate, CRISPR/Cas9-mediated knockout of a cereblon substrate coupled with a flow cytometry-based cellular competition assay was utilized to assess relative cell fitness upon gene knock-out in six DLBCL cell lines: KARPAS-422, U-2932, RIVA, SU-DHL-16, HT, and SU-DHL-4 (FIG. 7, Panel A). To perform the flow cytometry-based competition assay, stable Cas9-expressing DLBCL cells were transduced with a control non-targeting sgRNA construct containing a GFP reporter (sgNT-1-GFP), or with a sgRNA construct targeting a gene of interest containing an RFP reporter (sgRNA-RFP). For targeted knock-out of each gene, two sgRNA sequences were used to knock-out Ikaros (sgIKZF1-1, sgIKZF1-2), Aiolos (sgIKZF3-1, sgIKZF3-2), and ZFP91 (sgZFP91-1, sgZFP91-3). For controls, two non-targeting sgRNAs (sgNT-1, sgNT-2), a sgRNA targeting a non-coding region of the genome (sgNC-1), and a sgRNA targeting an established essential gene ETF1 (sgETF1-1) were included. Following transduction with sgRNAs, cells were washed and mixed at a 1:1 ratio and the percentage of GFP^+ and RFP^+ cells was measured every three days for eighteen days (FIG. 7, panel B). […]

SMILES: O=C1CC[C@H](N2C(=O)c3cccc(NCc4ccc(CN5CC(N6CCOCC6)C5)cc4F)c3C2=O)C(=O)N1 [Compound 1, (S)-2-(2,6-dioxopiperidin-3-yl)-4-((2-fluoro-4-((3-morpholinoazetidin-1-yl)methyl)benzyl)amino)isoindoline-1,3-dione]
- sIL-2 and sIL-6 (BT system): increased
- sIgG, sIL-17A, sIL-17F, and sTNFα (BT system): decreased
- protection by degradation-resistant mutants of Ikaros or Aiolos [1]: nearly complete protection
- IC50 ([2]; 120 h, six DLBCL lines, five days, read-out: IC50 in control CAS9 expressing cells (CRBN^WT)): 2.5 to 40 nM
- effect of CRBN knock-out on antiproliferative activity ([2]; CRBN^−/− cells): blocked the antiproliferative activity
- RFP+/GFP+ ratio relative to DMSO-treated control cells ([3]; sgIKZF1 and sgIKZF3 knock-out cells): dose-dependent decrease
- dose-dependent decrease in RFP+/GFP+ ratio ([3]; sgZFP91 cells): not observed
